Data reported in patent US20260225997A1, “IONIZABLE AMINE LIPIDS” (Intellia Therapeutics, Inc., priority 2018, published 2026).
Like-named read-outs stand apart in the source and are kept apart here.

Key:
[1] = RNA encapsulation efficiency of LNP (Ribogreen fluorescence assay); format: physicochemical; settings: N:P 6.0
Procedure: A fluorescence-based assay (Ribogreen®, ThermoFisher Scientific) is used to determine total RNA concentration and free RNA. Encapsulation efficiency is calculated as (Total RNA−Free RNA)/Total RNA. LNP samples are diluted appropriately with 1× TE buffer containing 0.2% Triton-X 100 to determine total RNA or 1× TE buffer to determine free RNA. Standard curves are prepared by utilizing the starting RNA solution used to make the compositions and diluted in 1× TE buffer+/−0.2% Triton-X 100. Diluted RiboGreen® dye (according to the manufacturer's instructions) is then added to each of the standards and samples and allowed to incubate for approximately 10 minutes at room temperature, in the absence of light. A SpectraMax M5 Microplate Reader (Molecular Devices) is used to read the samples with excitation, auto cutoff and emission wavelengths set to 488 nm, 515 nm, and 525 nm respectively. Total RNA and free RNA are determined from the appropriate standard curves.
Encapsulation efficiency is calculated as (Total RNA−Free RNA)/Total RNA. The same procedure may be used for determining the encapsulation efficiency of a DNA-based cargo component. For single-strand DNA Oligreen Dye may be used, and for double-strand DNA, Picogreen Dye.

TTR [2] = assay: TTR editing in mouse liver by NGS after i.v. LNP delivery of Cas9 mRNA and sgRNA; format: in vivo; settings: CD-1 female mice
Procedure: Preparations of various LNP compositions were prepared with amine lipids. In assays for percent liver editing in mice, Cas9 mRNA and chemically modified sgRNA were formulated in LNPs, at either a 1:1 w/w ratio or a 1:2 w/w ratio. LNPs are formulated with a composition of a given ionizable lipid (e.g. an amine lipid), DSPC, cholesterol, and PEG-2k-DMG, with a 6.0 N:P ratio.
(§1) CD-1 female mice, ranging from 6-10 weeks of age were used in each study. Animals were weighed and grouped according to body weight for preparing dosing solutions based on group average weight. LNPs were dosed via the lateral tail vein in a volume of 0.2 mL per animal (approximately 10 mL per kilogram body weight). The animals were periodically observed post dose for adverse effects for at least 24 hours post dose. Animals were euthanized at 6 or 7 days by exsanguination via cardiac puncture under isoflurane anesthesia. Blood was collected into serum separator tubes or into tubes containing buffered sodium citrate for plasma as described herein. For studies involving in vivo editing, liver tissue was collected from each animal for DNA extraction and analysis.
Cohorts of mice were measured for liver editing by Next-Generation Sequencing (NGS).
In brief, to quantitatively determine the efficiency of editing at the target location in the genome, genomic DNA was isolated and deep sequencing was utilized to identify the presence of insertions and deletions introduced by gene editing.
PCR primers were designed around the target site (e.g., B2M), and the genomic area of interest was amplified. Additional PCR was performed according to the manufacturer's protocols (Illumina) to add the necessary chemistry for sequencing. The amplicons were sequenced on an Illumina MiSeq instrument. The reads were aligned to the […] after eliminating those having low quality scores. The resulting files containing the reads were mapped to the reference genome (BAM files), where reads that overlapped the target region of interest were selected and the number of wild type reads versus the number of reads which contain an insertion, substitution, or deletion was calculated.
The editing percentage (e.g., the “editing efficiency” or “percent editing”) is defined as the total number of sequence reads with insertions or deletions over the total number of sequence reads, including wild type.
CD-1 female mice were dosed i.v. at 0.1 mpk or 0.3 mpk. At 6 days post-dose, animals were sacrificed. For animals dosed with G282 targeting TTR, blood and the liver were collected and serum TTR and editing were measured. For animals dosed with G650 targeting B2M, liver was collected and editing was measured.

[3] = pKa measurement of unformulated amine lipid (fluorescence, method of Jayaraman et al.); format: physicochemical; settings: 100 μM in 0.1 M phosphate buffer pH 4.5-9.0
Procedure: The pKa of each amine lipid was determined according to the method in Jayaraman, et al. (Angewandte Chemie, 2012) with the following adaptations. […] Lipid was diluted to 100 μM in 0.1 M phosphate buffer (Boston Bioproducts) where the pH ranged from 4.5-9.0. Fluorescence intensity was measured using excitation and emission wavelengths of 321 nm and 448 nm.

[4] = LNP average particle size and polydispersity by dynamic light scattering (Malvern Zetasizer); format: physicochemical
Description: The LNPs have a size of about 1 to about 1,000 nm, about 10 to about 500 nm, about 20 to about 500 nm, in a sub-embodiment about 50 to about 400 nm, in a sub-embodiment about 50 to about 300 nm, in a sub-embodiment about 50 to about 200 nm, and in a sub-embodiment about 50 to about 150 nm, and in another sub-embodiment about 60 to about 120 nm. Preferably, the LNPs have a size from about 60 nm to about 100 nm. The average sizes (diameters) of the fully formed LNP, may be measured by dynamic light scattering on a Malvern Zetasizer. The LNP sample is diluted in phosphate buffered saline (PBS) so that the count rate is approximately 200-400 kcps. The data is presented as a weighted average of the intensity measure.
The LNPs disclosed herein have a size (e.g. Z-average diameter) of about 1 to about 250 nm. In some embodiments, the LNPs have a size of about 10 to about 200 nm. In further embodiments, the LNPs have a size of about 20 to about 150 nm. In some embodiments, the LNPs have a size of about 50 to about 150 nm. In some embodiments, the LNPs have a size of about 50 to about 100 nm. In some embodiments, the LNPs have a size of about 50 to about 120 nm. In some embodiments, the LNPs have a size of about 60 to about 100 nm. In some embodiments, the LNPs have a size of about 75 to about 150 nm. In some embodiments, the LNPs have a size of about 75 to about 120 nm. In some embodiments, the LNPs have a size of about 75 to about 100 nm. Unless indicated otherwise, all sizes referred to herein are the average sizes (diameters) of the fully formed nanoparticles, as measured by dynamic light scattering on a Malvern Zetasizer. The nanoparticle sample is diluted in phosphate buffered saline (PBS) so that the count rate is approximately 200-400 kcps. The data is presented as a weighted-average of the intensity measure (Z-average diameter).
Dynamic Light Scattering (“DLS”) is used to characterize the polydispersity index (“pdi”) and size of the LNPs of the present disclosure. DLS measures the scattering of light that results from subjecting a sample to a light source. PDI, as determined from DLS measurements, represents the distribution of particle size (around the mean particle size) in a population, with a perfectly uniform population having a PDI of zero.
LNP compositions are analyzed for average particle size, polydispersity index (pdi), total RNA content, encapsulation efficiency of RNA, and zeta potential. LNP compositions may be further characterized by lipid analysis, AF4-MALS, NTA, and/or cryo-EM. Average particle size and polydispersity are measured by dynamic light scattering (DLS) using a Malvern Zetasizer DLS instrument. LNP samples were diluted with PBS buffer prior to being measured by DLS. Z-average diameter which is an intensity-based measurement of average particle size was reported along with number average diameter and pdi. A Malvern Zetasizer instrument is also used to measure the zeta potential of the LNP. Samples are diluted 1:17 (50 μL into 800 μL) in 0.1×PBS, pH 7.4 prior to measurement.

TTR [5] = assay: Transthyretin (TTR) ELISA analysis of mouse serum after LNP dosing; format: in vivo
Procedure: as §1
CD-1 female mice were dosed i.v. at 0.1 mpk or 0.3 mpk. […] For animals dosed with G282 targeting TTR, blood and the liver were collected and serum TTR and editing were measured. For animals dosed with G650 targeting B2M, liver was collected and editing was measured.
Blood was collected and the serum was isolated as indicated. The total mouse TTR serum levels were determined using a Mouse Prealbumin (Transthyretin) ELISA Kit (Aviva Systems Biology, Cat. OKIA00111). Briefly, sera were serial diluted with kit sample diluent to a final dilution of 10,000-fold for 0.1 mpk dose and 2,500-fold for 0.3 mpk. This diluted sample was then added to the ELISA plates and the assay was then carried out according to directions.

[6] = Example 60: 0.1 mpk i.v., 6 days post-dose, G502 1:2
[7] = Table 18, Example 60: LNP, G502 1:2
[8] = Example 58: 0.1 mpk i.v., 6 days post-dose, G282 1:1
[9] = Table 14, Example 58: LNP, G282 1:1
[10] = Mus musculus, iv, 144 h, Example 58: 0.1 mpk i.v., 6 days post-dose, G282 1:1, read-out: Serum TTR % TSS
[11] = Example 61: 0.1 mpk i.v., 7 days post-dose, G282 1:1
[12] = Table 20, Example 61: LNP, G282 1:1
[13] = Example 62: 0.03 mpk i.v., 7 days post-dose, G282 1:2
[14] = Example 62: 0.1 mpk i.v., 7 days post-dose, G282 1:2
[15] = Example 55: 0.1 mpk i.v., 7 days post-dose, G282 1:1

CCCCCCCCCCC(=O)OCCCCCCN(CCO)CCCCCCCC(OCCCCCCCC)OCCCCCCCC [Compound 22, 6-((8,8-bis(octyloxy)octyl)(2-hydroxyethyl)amino)hexyl undecanoate]
Encapsulation (%) ([1]; Table 18, Example 60: LNP, G502 (TTR), sgRNA:Cas9 mRNA 1:2 w/w): 98% | Editing Mean % Indel (TTR [2]; [6]): 45.6% | pKa [3]: 6.18 | Num Ave Size (nm) [4, 7]: 66.68 nm | PDI [4, 7]: 0.029 | Z-Ave Size (nm) [4, 7]: 82.91 nm | Serum TTR (TTR [5]; [6]): 410 µg/mL | response vs control in vivo at 0.1 mg/kg (TTR [5]; Mus musculus, iv, 144 h, Example 60: 0.1 mpk i.v., 6 days post-dose, G502 1:2, read-out: Serum TTR % TSS): 29%

CCCCCC/C=C\COC(=O)CCCCCCCN(CCO)CCCCCCCC(OCCCCCCCC)OCCCCCCCC [Compound 16, (Z)-non-2-en-1-yl 8-((8,8-bis(octyloxy)octyl)(2-hydroxyethyl)amino)octanoate]
Encapsulation (%) ([1]; Table 14, Example 58: LNP, G282 (TTR) 1:1 w/w): 78% | Editing Mean % Indel (TTR [2]; [8]): 35.2% | pKa [3]: 6.34 | Num Ave Size (nm) [4, 9]: 66.66 nm | PDI [4, 9]: 0.132 | Z-Ave Size (nm) [4, 9]: 109.5 nm | Serum TTR (TTR [5]; [8]): 516 µg/mL | response vs control in vivo at 0.1 mg/kg (TTR [5]; [10]): 52%

CCCCCCCCCOC(=O)CCCCCCCN(CCO)CCCCCCCCCC(CCCCCCCC)CCCCCCCC [Compound 26, nonyl 8-((2-hydroxyethyl)(10-octyloctadecyl)amino)octanoate, reference compound]
Encapsulation (%) ([1]; Table 20, Example 61: LNP, G282 (TTR) 1:1 w/w): 99% | Editing Mean % Indel (TTR [2]; [11]): 2.6% | pKa [3]: 6.19 | Num Ave Size (nm) [4, 12]: 48.37 nm | PDI [4, 12]: 0.07 | Z-Ave Size (nm) [4, 12]: 63.25 nm | Serum TTR (TTR [5]; [11]): 979 µg/mL | response vs control in vivo at 0.1 mg/kg (TTR [5]; Mus musculus, iv, 168 h, Example 61: 0.1 mpk i.v., 7 days post-dose, G282 1:1, read-out: Serum TTR % TSS): 76%

CCCCCCCCOC(CCCCCCCN(CCO)CCCCCCCC(=O)OCCCCCCC)OCCCCCCCC [Compound 15, heptyl 8-((8,8-bis(octyloxy)octyl)(2-hydroxyethyl)amino)octanoate]
Editing Mean % Indel (TTR [2]; [8]): 50.3% | Editing Mean % Indel (TTR [2]; [13]): 16.4% | Editing Mean % Indel (TTR [2]; [14]): 57.4% | pKa [3]: 6.34 | Serum TTR (TTR [5]; [8]): 179 µg/mL | Serum TTR (TTR [5]; [13]): 548 µg/mL | Serum TTR (TTR [5]; [14]): 180 µg/mL | response vs control in vivo at 0.1 mg/kg (TTR [5]; [10]): 18% | response vs control in vivo at 0.03 mg/kg (TTR [5]; Mus musculus, iv, 168 h, Example 62: 0.03 mpk i.v., 7 days post-dose, G282 1:2, read-out: Serum TTR % TSS): 86% | response vs control in vivo at 0.1 mg/kg (TTR [5]; Mus musculus, iv, 168 h, Example 62: 0.1 mpk i.v., 7 days post-dose, G282 1:2, read-out: Serum TTR % TSS): 28%

CCCCCCCCCOC(=O)CCCCCCCN(CCO)CCCCCCCC(OCCCCCC)OCCCCCC [Compound 8, nonyl 8-((8,8-bis(hexyloxy)octyl)(2-hydroxyethyl)amino)octanoate]
% Editing (TTR, liver) (TTR [2]; [15]): 43% | pKa [3]: 6.37 | Serum TTR (TTR [5]; [15]): 387 µg/mL | Serum TTR (% TSS) (TTR [5]; [15]): 34 % TSS
